≈ marks a conversion by molar mass, not a printed value. Read-outs that look alike come from different tables or passages of the source.

The subject of assay [1] is HeLa cells. In words: MTT cytotoxicity assay, HeLa. In kind it is cell-based, human. The settings on record: for IC50: Homo sapiens, HeLa. How it is done: (§1) Cytotoxicity was evaluated using the MTT (3-(4,5-dimethylthiazol-2-yl)-2,5-diphenyltetrazolium bromide) assay to measure cell viability after treatment with the plant extracts. This assay measures the percentage viability of a cell population by monitoring the ability of the NAD(P)H-dependent oxidoreductase enzyme system in live cells to reduce MTT to formazan, an insoluble purple form of the dye. […] The medium was replaced with fresh medium, and the extracts were added in varying concentrations (50–250 µg/mL). The plates were incubated at 37 °C in 5% CO2 for 48 h. At the end of the incubation period, the spent medium was discarded and replaced with 100 µL fresh medium containing 10 µL (5 mg/mL in PBS) MTT reagent. The cells were then incubated for an additional 4 h. The MTT/medium was subsequently removed, and 100 μL DMSO was added to solubilize the formazan dye product. Absorbance at 570 nm was assessed using a microplate reader (Vacutec, Hamburg, Germany). Cell viability was calculated as in Equation (2).(2) Cell viability (%)=At/Ac×100 where At = absorbance of test or treated cells and Ac = absorbance of control or untreated cells.

In assay [2] the test system is HeLa cells. Description: Muse MultiCaspase assay, HeLa. In kind it is cell-based, human. To be noted: 100 µg/mL, 48 h, Figure 5a. Here is the method: (§2) The multicaspase assay was performed using the Muse MultiCaspase kit, which can detect the presence of multiple caspases (caspase-1, 3, 4, 5, 6, 7, 8, and 9). The kit utilizes a derivatized VAD peptide that can detect the activity of multiple caspases and a dead cell dye that provides information on membrane integrity or cell death. Cells were seeded into 48-well plates at a density of 1.0 × 10^5 cells/well and allowed to attach over 24 h. Subsequently, 100 µg/mL of the isolated fractions were added, and the cells were incubated for 48 h. The cells were then trypsinized and reconstituted in 1 × caspase buffer. Approximately 5 μL of the Muse™ MultiCaspase working solution was added to 50 μL of cell suspension and incubated at 37 °C for 30 min. Thereafter, 150 μL of 7-AAD working solution was added, mixed thoroughly, and analyzed using the Muse™ cell analyzer (Luminex Corporation, Austin, TX, USA).

Assay [3] relates to MCF-7 cells. Description: MTT cytotoxicity assay, MCF-7. In kind it is cell-based, human. To be noted: for IC50: Homo sapiens. Here is the method: as §1
Assay [4] relates to MCF-7 cells. In words: Muse MultiCaspase assay, MCF-7. In kind it is cell-based, human. To be noted: 100 µg/mL, 48 h, Figure 5b. Here is the method: as §2
Assay [5] deals with HEK293 cells. Description: MTT cytotoxicity assay, HEK293. Type of assay: cell-based. The settings on record: Homo sapiens. Here is the method: as §1
In general terms: Tetrazolium dyes change colour on reduction, which living cells bring about.

A short description of assay [6]: DPPH radical scavenging assay. Type of assay: biochemical. The settings on record: crude extracts/ascorbic acid 50-250 µg/mL, 30 min, 517 nm. Here is the method:
The antioxidant potential of the crude extracts was evaluated by measuring their DPPH radical scavenging activity following the protocol described by Bukhari et al.. […] A control well containing 5% dimethyl sulfoxide (DMSO) and DPPH was run concurrently. The samples were incubated in the dark for 30 min at room temperature. The absorbance was read against a DMSO blank at a wavelength of 517 nm using a microplate reader.
Background: Loss of DPPH colour is used to gauge radical scavenging.

Assay [7] relates to MCF-7 cells. In words: AO/EB dual staining for apoptosis, MCF-7. To be noted: 48 h; 250 µg/mL (method) or 100 µg/mL (Figure 3 legend). In kind it is cell-based, human.
Experimental: A qualitative assessment of apoptosis induction in cancer cells was conducted by the acridine orange-ethidium bromide (AO/EB) dual staining method, as described previously [13, 14]. Confluent cells (4.0 × 10^3 cells/well) were trypsinized and seeded into 48-well plates and incubated for 24 h at 37 °C in 5% CO2. Subsequently, the spent medium was replaced, and cells were incubated for a further 48 h with the extracts or standard drug (5-fluorouracil) at a concentration of 250 µg/mL. The cells were rinsed twice with cold PBS, and 15 µL of the AO/EB dye mixture (0.1 mg/mL: 0.1 mg/mL) was added, and the cells were incubated for 5 min at ambient temperature. The cells were washed with PBS to remove excess dye and then visualized under an Olympus fluorescence microscope (Wirsam Scientific and Precision Equipment Ltd., Johannesburg, South Africa). Images were captured using a CC12 fluorescence camera and Analysis Five Software (Olympus Soft Imaging Solutions, Olympus, Tokyo, Japan) at 200× magnification.
[8] abbreviates: isolated compounds/fractions, read-out: IC50 HeLa (isolated compounds).
Where [9] appears, read: MCF7, MTT, isolated compounds/fractions, read-out: IC50 MCF-7 (isolated compounds).
Where [10] appears, read: MTT, isolated compounds/fractions.
The mark [11] stands for this setting: HEK293, isolated compounds/fractions, read-out: IC50 HEK293 (isolated compounds).

Broadly, the IC50 is the concentration needed to halve the response being measured. `CCCCCCCCCCCCCCCCCCCCCCCCCCOC(=O)/C=C/c1ccc(OC)c(O)c1` [n-Hexacosanyl isoferulate]: the IC50 in assay [1] (setting [8]) came out at 147 µg/mL (≈ 262 µM); in assay [3] (setting [9]), 58.8 µg/mL (≈ 105 µM); in assay [5] (setting [11]) it was 316 µg/mL (≈ 566 µM). The “IC50 HeLa (isolated compounds)” value in assay [1] (isolated compounds/fractions) worked out at 146.63 µg/mL (≈ 262 µM). The “caspase activation in HeLa cells” value in assay [2] is recorded as “pronounced caspase activation potential”. For the same compound, the “IC50 MCF-7 (isolated compounds)” value in assay [3] (setting [10]) was 58.84 µg/mL (≈ 105 µM); in assay [3] (MTT, isolated compounds/fractions, listed as n-hexacosanyl isoferulate), 58.8 µg/mL (≈ 105 µM). The “caspase activation in MCF-7 cells” value in assay [4] is “pronounced caspase activation potential”.
Take `CCCCCCCCCCCCCCOC(=O)/C=C/c1ccc(OC)c(O)c1` [Tetradecyl isoferulate, tetradecyl isoferulate]: the IC50 worked out at 170 µg/mL (≈ 435 µM) in assay [1] (setting [8]), 124 µg/mL (≈ 317 µM) in assay [3] (setting [9]) and 141 µg/mL (≈ 360 µM) in assay [5] (setting [11]). Besides, the “caspase activation in HeLa cells” value in assay [2] was “pronounced caspase activation potential”. Further, the “IC50 MCF-7 (isolated compounds)” value in assay [3] (setting [10]) worked out at 123.6174 µg/mL (≈ 317 µM). Moreover, the “caspase activation in MCF-7 cells” value in assay [4] is “pronounced caspase activation potential”.
On to `O=C1O[C@H]([C@@H](O)CO)C(O)=C1O` [Ascorbic acid, ascorbic acid], for which the “IC50 DPPH radical scavenging” value in assay [6] stood at 84.37 µg/mL (≈ 479 µM).
`CCCCCCCCCCCCCCCCCCCCCO` [1-Heneicosanol, 1-heneicosanol]: the IC50 in assay [1] (setting [8]) turned out to be 4010 µg/mL (≈ 12800 µM); in assay [3] (setting [9]) it was 1980 µg/mL (≈ 6330 µM); in assay [5] (setting [11]), 372 µg/mL (≈ 1190 µM).
With `O=c1[nH]cc(F)c(=O)[nH]1` [Compound 5-FU, 5-Fluorouracil, reference compound], the 50% inhibitory concentration (IC50) in assay [1] (48 h, read-out: IC50 HeLa (crude extracts)) amounted to 510 µg/mL (≈ 3920 µM); in assay [3] (MCF7, 48 h, MTT, 48 h, read-out: IC50 MCF-7 (crude extracts)), 148 µg/mL (≈ 1140 µM); in assay [5] (48 h, HEK293 served as normal cells, read-out: IC50 HEK293 (crude extracts)), 54.5 µg/mL (≈ 419 µM). Besides, in assay [7], the “AO/EB fluorescence / apoptosis in MCF-7 cells” value was “red fluorescence”.
